In patent US20230118114A1, “BIOERODIBLE LIFE SUPPORT HYDROGELS FOR THE DELIVERY OF VIABLE MITOCHONDRIA” (University of Kentucky Research Foundation, priority 2021, published 2023):
“Also recorded” adds a separate entry of the source.

Key:
spinal cord injury (SCI) = settings: cited from earlier work
[1] = tested on: mitochondria isolated from spinal cord injury site; assay: Mitochondrial respiration (OCR) of spinal cord mitochondria after contusion SCI; assay type: in vivo, rats; settings: 24 hours after SCI; MitoTxp 100 µg intraspinal within 3 hr; ALC 300 mg/kg i.p. at 3 hours plus booster 6 hours later
Method: Bars are Mean ± SD, n=5-6/group. *p<0.05 compared with sham; # p<0.05 versus vehicle.
Briefly, rats were contused at L1/L2 spinal level with 250 kDyn force using Infinite Horizon Impactor; Sham group received only T12 laminectomy. Designated injured rats were injected either intraspinally with healthy mitochondria (100 µg, MitoTxp) isolated from syngeneic rat soleus muscle within 3 hr and/or injected with ALC (300 mg/kg, i.p.) at 3 hours followed by a booster 6 hours later. Then, after 24 hours, mitochondria were isolated from spinal cord injury site and assessed for respiration (OCR).

[2] = tested on: mitochondria isolated from spinal cord injury site; settings: once daily ALC administered acutely after contusion SCI; cited from earlier work

Row | Compound | long-term functional recovery and tissue sparing (spinal cord injury (SCI); continuous NACA 150 and 300 mg/kg/day up to 7 days post-injury) | States III & V.1 OCR [1] | long term hind limb locomotor function and tissue sparing (spinal cord injury (SCI); continued daily ALC for three weeks after contusion SCI) | hind limb function (spinal cord injury (SCI); injured rats, 3 weeks of daily ALC treatment, vs vehicle) | tissue sparing (spinal cord injury (SCI); injured rats, 3 weeks of daily ALC treatment) | mitochondrial respiration [2]
1 | N-acetylcysteine amide [NACA] | significant tissue sparing and improved recovery of hindlimb function; also recorded: significantly increased long-term functional recovery and tissue sparing |  |  |  |  | 
2 | CC(=O)O[C@H](CC(=O)[O-])C[N+](C)(C)C [ALC, acetyl-L-carnitine] |  | insignificant trends | significantly improves long term hind limb locomotor function and tissue sparing | able to step consistently with weight support on their hind limbs | increased gray and white matter tissue sparing | maintains mitochondrial respiration
